Measured values taken from ChEMBL document CHEMBL3045475, “Sensitivity of Sclerotinia sclerotiorum from oilseed crops to boscalid in Jiangsu Province of China” (Crop Prot, 2009).
In brackets after ≈: the same amount, converted by molar mass.

Experiments:
[1] = test system: Sclerotinia sclerotiorum; test: Antifungal activity against carbendazim and dimethachlon-sensitive Sclerotinia sclerotiorum SZ47 assessed as inhibition of mycelial growth after 2 days; assay type: functional, organism-based; conditions: SZ47, 48 h
[2] = test system: Sclerotinia sclerotiorum; test: Antifungal activity against carbendazim-resistant and dimethachlon-resistant Sclerotinia sclerotiorum CZ57-2 assessed as inhibition of mycelial growth after 2 days; assay type: functional, organism-based; conditions: CZ57-2, 48 h
[3] = test system: Sclerotinia sclerotiorum; test: Antifungal activity against carbendazim-resistant and dimethachlon-resistant Sclerotinia sclerotiorum ZJ288-1 assessed as inhibition of mycelial growth after 2 days; assay type: functional, organism-based; conditions: ZJ288-1, 48 h
[4] = test system: Sclerotinia sclerotiorum; test: Antifungal activity against carbendazim-resistant and dimethachlon-sensitive Sclerotinia sclerotiorum TZ83 assessed as inhibition of mycelial growth after 2 days; assay type: functional, organism-based; conditions: TZ83, 48 h
[5] = test system: Sclerotinia sclerotiorum; test: Antifungal activity against carbendazim and dimethachlon-sensitive Sclerotinia sclerotiorum YZ112 assessed as inhibition of mycelial growth after 2 days; assay type: functional, organism-based; conditions: YZ112, 48 h
[6] = test system: Sclerotinia sclerotiorum; test: Antifungal activity against carbendazim and dimethachlon-sensitive Sclerotinia sclerotiorum YZ114 assessed as inhibition of mycelial growth after 2 days; assay type: functional, organism-based; conditions: YZ114, 48 h
[7] = test system: Sclerotinia sclerotiorum; test: Antifungal activity against Sclerotinia sclerotiorum in oilseed rape field assessed as disease control at 125/ha measured 1 week before harvest; assay type: functional
[8] = test system: Sclerotinia sclerotiorum; test: Antifungal activity against Sclerotinia sclerotiorum in synthetic medium assessed as inhibition of mycelial growth after 2 days; assay type: functional, organism-based; conditions: 48 h
[9] = test system: Sclerotinia sclerotiorum; test: Antifungal activity against carbendazim-resistant and dimethachlon-resistant Sclerotinia sclerotiorum CZ57-3 assessed as inhibition of mycelial growth after 2 days; assay type: functional, organism-based; conditions: CZ57-3, 48 h
[10] = test system: Sclerotinia sclerotiorum; test: Antifungal activity against Sclerotinia sclerotiorum in oilseed rape field assessed as disease control at 80/ha measured 1 week before harvest; assay type: functional
[11] = test system: Sclerotinia sclerotiorum; test: Antifungal activity against Sclerotinia sclerotiorum in oilseed rape field assessed as disease control at 187.5/ha measured 1 week before harvest; assay type: functional
[12] = test system: Sclerotinia sclerotiorum; test: Antifungal activity against carbendazim-resistant and dimethachlon-sensitive Sclerotinia sclerotiorum YC35 assessed as inhibition of mycelial growth after 2 days; assay type: functional, organism-based; conditions: YC35, 48 h
[13] = test system: Sclerotinia sclerotiorum; test: Antifungal activity against carbendazim-resistant and dimethachlon-resistant Sclerotinia sclerotiorum ZJ288-2 assessed as inhibition of mycelial growth after 2 days; assay type: functional, organism-based; conditions: ZJ288-2, 48 h
[14] = test system: Sclerotinia sclerotiorum; test: Antifungal activity against Sclerotinia sclerotiorum in czapek medium assessed as inhibition of mycelial growth after 2 days; assay type: functional, organism-based; conditions: 48 h
[15] = test system: Sclerotinia sclerotiorum; test: Antifungal activity against carbendazim-resistant and dimethachlon-sensitive Sclerotinia sclerotiorum ZJ47 assessed as inhibition of mycelial growth after 2 days; assay type: functional, organism-based; conditions: ZJ47, 48 h
[16] = test system: Sclerotinia sclerotiorum; test: Antifungal activity against carbendazim-resistant and dimethachlon-sensitive Sclerotinia sclerotiorum ZJ44 assessed as inhibition of mycelial growth after 2 days; assay type: functional, organism-based; conditions: ZJ44, 48 h
[17] = test system: Sclerotinia sclerotiorum; test: Antifungal activity against carbendazim-resistant and dimethachlon-sensitive Sclerotinia sclerotiorum SZ48 assessed as inhibition of mycelial growth after 2 days; assay type: functional, organism-based; conditions: SZ48, 48 h
[18] = test system: Sclerotinia sclerotiorum; test: Antifungal activity against carbendazim-resistant and dimethachlon-sensitive Sclerotinia sclerotiorum ZJ288 assessed as inhibition of mycelial growth after 2 days; assay type: functional, organism-based; conditions: ZJ288, 48 h
[19] = test system: Sclerotinia sclerotiorum; test: Antifungal activity against carbendazim-resistant and dimethachlon-sensitive Sclerotinia sclerotiorum CZ57 assessed as inhibition of mycelial growth after 2 days; assay type: functional, organism-based; conditions: CZ57, 48 h
[20] = test system: Sclerotinia sclerotiorum; test: Antifungal activity against Sclerotinia sclerotiorum in PDA plates assessed as inhibition of mycelial growth after 2 days; assay type: functional, organism-based; conditions: 48 h
[21] = test system: Sclerotinia sclerotiorum; test: Antifungal activity against carbendazim and dimethachlon-sensitive Sclerotinia sclerotiorum SZ62 assessed as inhibition of mycelial growth after 2 days; assay type: functional, organism-based; conditions: SZ62, 48 h
[22] = test system: Sclerotinia sclerotiorum; test: Antifungal activity against carbendazim and dimethachlon-sensitive Sclerotinia sclerotiorum YZ116 assessed as inhibition of mycelial growth after 2 days; assay type: functional, organism-based; conditions: YZ116, 48 h
[23] = test system: Sclerotinia sclerotiorum; test: Antifungal activity against carbendazim-resistant and dimethachlon-resistant Sclerotinia sclerotiorum CZ57-1 assessed as inhibition of mycelial growth after 2 days; assay type: functional, organism-based; conditions: CZ57-1, 48 h
[24] = test system: Sclerotinia sclerotiorum; test: Antifungal activity against Sclerotinia sclerotiorum in oilseed rape field assessed as disease control at 250/ha measured 1 week before harvest; assay type: functional
[25] = test system: Sclerotinia sclerotiorum; test: Antifungal activity against carbendazim-resistant and dimethachlon-resistant Sclerotinia sclerotiorum ZJ288-3 assessed as inhibition of mycelial growth after 2 days; assay type: functional, organism-based; conditions: ZJ288-3, 48 h
[26] = test system: Sclerotinia sclerotiorum; test: Antifungal activity against Sclerotinia sclerotiorum in oilseed rape field assessed as disease control at 750/ha measured 1 week before harvest; assay type: functional
[27] = test system: Sclerotinia sclerotiorum; test: Antifungal activity against Sclerotinia sclerotiorum in oilseed rape field assessed as disease control at 690/ha measured 1 week before harvest; assay type: functional

O=C(Nc1ccccc1-c1ccc(Cl)cc1)c1cccnc1Cl [BOSCALID]
EC50 [1]: 0.181 µg/mL (≈ 0.527 µM)
EC50 [2]: 0.183 µg/mL (≈ 0.533 µM)
EC50 [3]: 0.195 µg/mL (≈ 0.568 µM)
EC50 [4]: 0.19 µg/mL (≈ 0.554 µM)
EC50 [5]: 0.211 µg/mL (≈ 0.615 µM)
EC50 [6]: 0.195 µg/mL (≈ 0.568 µM)
Activity [7]: 65.2%
EC50 [8]: 0.12 µg/mL (≈ 0.35 µM)
EC50 [9]: 0.163 µg/mL (≈ 0.475 µM)
Activity [10]: 49.7%
Activity [11]: 69%
EC50 [12]: 0.195 µg/mL (≈ 0.568 µM)
EC50 [13]: 0.126 µg/mL (≈ 0.367 µM)
EC50 [14]: 0.13 µg/mL (≈ 0.379 µM)
EC50 [15]: 0.188 µg/mL (≈ 0.548 µM)
EC50 [16]: 0.223 µg/mL (≈ 0.65 µM)
EC50 [17]: 0.168 µg/mL (≈ 0.489 µM)
EC50 [18]: 0.18 µg/mL (≈ 0.524 µM)
EC50 [19]: 0.186 µg/mL (≈ 0.542 µM)
EC50 [20]: 0.17 µg/mL (≈ 0.495 µM)
EC50 [21]: 0.17 µg/mL (≈ 0.495 µM)
EC50 [22]: 0.195 µg/mL (≈ 0.568 µM)
EC50 [23]: 0.115 µg/mL (≈ 0.335 µM)
Activity [24]: 75.1%
EC50 [25]: 0.262 µg/mL (≈ 0.763 µM)

COC(=O)Nc1nc2ccccc2[nH]1 [CARBENDAZIM]
EC50 [1]: 0.177 µg/mL (≈ 0.926 µM)
EC50 [2]: > 100 µg/mL
EC50 [3]: > 100 µg/mL
EC50 [4]: > 100 µg/mL
EC50 [5]: 0.106 µg/mL (≈ 0.554 µM)
EC50 [6]: 0.134 µg/mL (≈ 0.701 µM)
EC50 [9]: > 100 µg/mL
EC50 [12]: > 100 µg/mL
EC50 [13]: > 100 µg/mL
EC50 [15]: > 100 µg/mL
EC50 [16]: > 100 µg/mL
Activity [26]: 18.9%
EC50 [17]: > 100 µg/mL
EC50 [18]: 0.147 µg/mL (≈ 0.769 µM)
EC50 [19]: 0.168 µg/mL (≈ 0.879 µM)
EC50 [21]: 0.186 µg/mL (≈ 0.973 µM)
EC50 [22]: 0.137 µg/mL (≈ 0.717 µM)
EC50 [23]: > 100 µg/mL
EC50 [25]: > 100 µg/mL

O=C1CCC(=O)N1c1cc(Cl)cc(Cl)c1 [DIMETHACHLON]
EC50 [1]: 0.321 µg/mL (≈ 1.32 µM)
EC50 [2]: 152 µg/mL (≈ 622 µM)
EC50 [3]: 92.4 µg/mL (≈ 378 µM)
EC50 [4]: 0.335 µg/mL (≈ 1.37 µM)
EC50 [5]: 0.401 µg/mL (≈ 1.64 µM)
EC50 [6]: 0.365 µg/mL (≈ 1.5 µM)
Activity [27]: 44.6%
EC50 [9]: 125 µg/mL (≈ 511 µM)
EC50 [12]: 0.306 µg/mL (≈ 1.25 µM)
EC50 [13]: 86.8 µg/mL (≈ 356 µM)
EC50 [15]: 0.367 µg/mL (≈ 1.5 µM)
EC50 [16]: 0.317 µg/mL (≈ 1.3 µM)
EC50 [17]: 0.364 µg/mL (≈ 1.49 µM)
EC50 [18]: 0.397 µg/mL (≈ 1.63 µM)
EC50 [19]: 0.406 µg/mL (≈ 1.66 µM)
EC50 [21]: 0.351 µg/mL (≈ 1.44 µM)
EC50 [22]: 0.346 µg/mL (≈ 1.42 µM)
EC50 [23]: 166 µg/mL (≈ 682 µM)
EC50 [25]: 68 µg/mL (≈ 279 µM)
